Measured values: patent publication US20210009557A1, “ACYCLIC CXCR4 INHIBITORS AND USES THEREOF” (X4 Pharmaceuticals, Inc., priority 2017, published 2021)

Experiments:
in vitro = conditions: human, Caco-2, pH 7.4
Experimental: The goal of this assay was to evaluate the intestinal absorption potential of drug candidates using Caco-2 cell lines.
Experimental Procedure • 1. Pre-warm Pre-warm HBSS Buffer in 37° C. water bath • 2. Sonicate Take compounds from −20° C., sonicate for a few minutes (no less than 1 minute) • 3. Solution preparation
For A-to-B Direction: • HBSS buffer with 0.3% DMSO and 5 μM LY: add 150 μL DMSO and 50 μL LY (5 mM) into 50 ml HBSS buffer (pH 7.4). • HBSS buffer with 0.1% DMSO and 5 μM LY: add 50 μL DMSO and 50 μL LY (5 mM) into 50 mL HBSS buffer (pH 7.4).
For B-to-A Direction: • HBSS buffer with 0.3% DMSO: add 150 μL DMSO into 50 ml HBSS buffer (pH 7.4). HBSS buffer with 0.1% DMSO: add 50 μL DMSO into 50 ml HBSS buffer (pH 7.4).
For A-to-B Direction: • Prepare HBSS buffer with 0.4% DMSO: add 200 μL DMSO into 50 ml HBSS buffer (pH 7.4).
For B-to-A Direction: • Prepare HBSS buffer with 0.4% DMSO and 5 μM LY: add 200 μL DMSO and 50 μL LY (5 mM) into 50 ml HBSS buffer (pH 7.4).
• 4. Measure TEER Take cell culture plate out of incubator, wash the cell monolayers with HBSS buffer, and then measure TEER values at Rm temperature. • 5. Centrifuge Centrifuge the compound solution (from step 3) at 4000 rpm for 5 min before loading to donor chambers. • 6. Dosing Add solution based on the volumes listed in the following table (make sure to take extra 100 μL of donor sample for T0 as Backup).
• 7. Apical LYTO samples To determine LY concentration in the apical chamber, take 100 μL sample from apical chambers into an opaque plate for LYTO. • 8. Pre-warm Pre-warm apical and basolateral plates at 37° C. for about 5 min, then begin transport by placing the apical plate onto basolateral plate. • 9. Incubation Keep the plates in incubator at 37° C. for 90 min. • 10.
• Prepare 1× solution: • 3 μL (20×)+57 μL of 0.4% DMSO HBSS+60 μL ACN with IS (Osalmid or Imipramine)—120 μL (1×) • 11. Transport termination Separate the apical plate from the basolateral plate after 90-min incubation. • 12. Measure LY Take 100 μL samples from basolateral plate to an opaque plate as LYT90. • 13. Measure LY concentrations for LYTO and LYT90 by Fluorometer (at excitation of 485 nm/emission of 535 nm). • 14.
Drug permeability: Papp=(VA/(Area×time))×([drug]accepter/(([drug]initial, donor)×Dilution Factor) • Where VA is the volume in the acceptor well, area is the surface area of the membrane and time is the total transport time in seconds.
For Millicell-24 Cell Culture Plates: surface area of the membrane=0.7 cm^2, VA=0.8 mL (A-to-B) or 0.4 mL (B-to-A)

[1] = target: T1, CXCR-4 transfected U87 cell line (U87.CXCR4) (Homo sapiens, UniProt P61073); assay: Intracellular CXCL-12-induced calcium mobilization assay (FLIPR); type: cell-based; conditions: U87.CXCR4 cells; CXCL-12 25-50 ng/mL; compounds added 15 minutes before; read-out: IC50 CXCL-12 Ca2+ flux U87.CXCR4+
T1 construct: expressed in transfected cells; host or cells: U87 cell line (U87.CXCR4)
T1 sequence (P61073 whole entry): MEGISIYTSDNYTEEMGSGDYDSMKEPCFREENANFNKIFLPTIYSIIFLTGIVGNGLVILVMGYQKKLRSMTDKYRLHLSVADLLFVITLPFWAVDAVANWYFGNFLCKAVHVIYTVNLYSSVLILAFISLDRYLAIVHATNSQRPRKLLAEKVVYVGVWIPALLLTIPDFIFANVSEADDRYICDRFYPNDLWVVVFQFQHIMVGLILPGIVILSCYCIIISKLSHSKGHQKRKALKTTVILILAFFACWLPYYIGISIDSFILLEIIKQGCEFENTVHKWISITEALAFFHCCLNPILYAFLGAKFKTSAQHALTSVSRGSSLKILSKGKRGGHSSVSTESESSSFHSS
Experimental: Intracellular calcium mobilization induced by chemokines orchemokine-derived peptides were evaluated using a calcium responsive fluorescent probe and a FLIPR system. The CXCR-4 transfected U87 cell line (U87.CXCR4) cells were seeded in gelatine-coated black-wall 96-well plates at 20,000 cells per well and incubated for 12 hours. Cells were then loaded with the fluorescent calcium probe Fluo-2 acetoxymethyl at 4 μM final concentration in assay buffer (Hanks' balanced salt solution with 20 mM HEPES buffer and 0.2% bovine serum albumin, pH 7.4) for 45 min at 37′C. The intracellular calcium mobilization induced by the CXCL-12 (25-50 ng/mL) was then measured at 37° C. by monitoring the fluorescence as a function of time in all the wells simultaneously using a fluorometric imaging plate reader (FLIPR Tetra, Molecular Devices).

[2] = target: T2, Jurkat cells expressing CXCR4 (Homo sapiens, UniProt P61073); assay: Chemokine (CXCL12-AF647) binding inhibition assay; conditions: CXCL12-AF647 25 ng/mL, read-out: IC50 CXCL-12 binding Jurkat
T2 construct: Jurkat cells expressing CXCR4; endogenous in cells; host or cells: Jurkat cells
T2 sequence (P61073 whole entry): as above
Experimental: Jurkat cells expressing CXCR4 were washed once with assay buffer (Hanks' balanced salt solution with 20 mM HEPES buffer and 0.2% bovine serum albumin, pH 7.4) and then incubated for 15 min at room temperature with the test compounds diluted in assay buffer at dose-dependent concentrations. Subsequently, CXCL12-AF647 (25 ng/mL) was added to the compound-incubated cells. The cells were incubated for 30 min at room temperature. Thereafter, the cells were washed twice in assay buffer, fixed in 1% paraformaldehyde in PBS, and analyzed on the FL4 channel of a FACSCalibur flow cytometer equipped with a 635-nm red diode laser (Becton Dickinson, San Jose, Calif., USA).
The percentages of inhibition of CXCL12-AF647 binding were calculated according to the formula: [1−((MFI−MFINC)/(MFIPC−MFINC))]×100 where MFI is the mean fluorescence intensity of the cells incubated with CXCL12-AF647 in the presence of the inhibitor, MFINC is the mean fluorescence intensity measured in the negative control (i.e., autofluorescence of unlabeled cells), and MFIPC is the mean fluorescence intensity of the positive control (i.e., cells exposed to CXCL12-AF647 alone).

Structure (SMILES)	Papp A→B at 90 min, 10 μM (in vitro)	Papp B→A at 90 min, 10 μM (in vitro)	efflux ratio at 90 min, 10 μM (in vitro)	IC50 [1]	IC50 [2]
CC(c1ccccn1)N(CCC(N)=O)Cc1ccccn1 (stereo not shown) [Compound I-11]	5 to 10 ×10⁻⁶ cm/s	> 10 ×10⁻⁶ cm/s	0.1 to 10	≥ 1000 nM	100 to 1000 nM
Cc1cccnc1CN(CCc1cccc(O)n1)Cc1ncccc1C [Compound I-59]	> 10 ×10⁻⁶ cm/s	> 10 ×10⁻⁶ cm/s	0.1 to 10	≥ 1000 nM	100 to 1000 nM
CC(c1ccccn1)N(CCC(N)=O)Cc1nc2ccccc2[nH]1 (stereo not shown) [Compound I-12, 3-(((1H-benzo[d]imidazol-2-yl)methyl)(1-(pyridin-2-yl)ethyl)amino)propanamide]	< 5 ×10⁻⁶ cm/s	> 10 ×10⁻⁶ cm/s	> 30	≥ 1000 nM	100 to 1000 nM
Cc1cccnc1CN(CCC(N)=O)Cc1ncccc1-c1ccccc1 [Compound I-46]	> 10 ×10⁻⁶ cm/s	> 10 ×10⁻⁶ cm/s	0.1 to 10	≥ 1000 nM	0.01 to 100 nM
CC(C)c1cccnc1CN(CCc1cnc[nH]1)Cc1ncccc1C(C)C [Compound I-38]	5 to 10 ×10⁻⁶ cm/s	> 10 ×10⁻⁶ cm/s	0.1 to 10	≥ 1000 nM	100 to 1000 nM
Cn1c(CN(CCc2c[nH]cn2)[C@H]2CCCc3cccnc32)nc2cc(F)ccc21 [Compound I-45]	< 5 ×10⁻⁶ cm/s	> 10 ×10⁻⁶ cm/s	0.1 to 10	≥ 1000 nM	0.01 to 100 nM
Cc1cccnc1CN(CCc1c[nH]cn1)Cc1nc2c(F)cccc2n1C [Compound I-43, N-((4-fluoro-1-methyl-1H-benzo[d]imidazol-2-yl)methyl)-2-(1H-imidazol-4-yl)-N-((3-methylpyridin-2-yl)methyl)ethan-1-amine]	5 to 10 ×10⁻⁶ cm/s	> 10 ×10⁻⁶ cm/s	0.1 to 10	0.01 to 100 nM	0.01 to 100 nM
CC(c1ccccn1)N(CCc1cnc[nH]1)Cc1nc2ccccc2[nH]1 (stereo not shown) [Compound I-7, N-((1H-benzo[d]imidazol-2-yl)methyl)-N-(2-(1H-imidazol-5-yl)ethyl)-1-(pyridin-2-yl)ethan-1-amine]	< 5 ×10⁻⁶ cm/s	> 10 ×10⁻⁶ cm/s	> 30	≥ 1000 nM	0.01 to 100 nM
Clc1cccnc1CN(CCc1cnc[nH]1)Cc1nccs1 [Compound I-53]	> 10 ×10⁻⁶ cm/s	> 10 ×10⁻⁶ cm/s	0.1 to 10	≥ 1000 nM	100 to 1000 nM
NC(=O)CCN(Cc1nc2ccccc2[nH]1)[C@H]1CCCc2cccnc21 [Compound I-21, (S)-3-(((1H-benzo[d]imidazol-2-yl)methyl)(5,6,7,8-tetrahydroquinolin-8-yl)amino)propanamide]	< 5 ×10⁻⁶ cm/s	> 10 ×10⁻⁶ cm/s	> 30	100 to 1000 nM	0.01 to 100 nM
NC(=O)CCN(Cc1ncccc1Cl)[C@H]1CCCc2cccnc21 [Compound I-24]	> 10 ×10⁻⁶ cm/s	> 10 ×10⁻⁶ cm/s	0.1 to 10	≥ 1000 nM	0.01 to 100 nM
CC[C@H]1OC(=O)[C@H](C)[C@@H](O[C@H]2C[C@@](C)(OC)[C@@H](O)[C@H](C)O2)[C@H](C)[C@@H](O[C@@H]2O[C@H](C)C[C@H](N(C)C)[C@H]2O)[C@](C)(O)C[C@@H](C)C(=O)[C@H](C)[C@@H](O)[C@]1(C)O [Erythromycin, reference compound]	–	–	> 116	–	–
CC(c1ccccn1)N(CCc1cnc[nH]1)Cc1ccccn1 (stereo not shown) [Compound I-6]	< 5 ×10⁻⁶ cm/s	> 10 ×10⁻⁶ cm/s	10 to 30	≥ 1000 nM	0.01 to 100 nM
c1cnc2c(c1)CCC[C@@H]2N(CCC1CCCCO1)Cc1nc2ccccc2[nH]1 (stereo partly shown) [Compound I-16]	> 10 ×10⁻⁶ cm/s	> 10 ×10⁻⁶ cm/s	0.1 to 10	≥ 1000 nM	100 to 1000 nM
Clc1cccnc1CN(CCc1c[nH]cn1)[C@H]1CCCc2cccnc21 [Compound I-27, (S)—N-(2-(1H-imidazol-4-yl)ethyl)-N-((3-chloropyridin-2-yl)methyl)-5,6,7,8-tetrahydroquinolin-8-amine]	5 to 10 ×10⁻⁶ cm/s	> 10 ×10⁻⁶ cm/s	0.1 to 10	≥ 1000 nM	0.01 to 100 nM
Cn1c(CN(CCC(N)=O)[C@H]2CCCc3cccnc32)nc2ccccc21 [Compound I-22]	5 to 10 ×10⁻⁶ cm/s	> 10 ×10⁻⁶ cm/s	10 to 30	100 to 1000 nM	0.01 to 100 nM
Clc1cccnc1CN(CCc1cnc[nH]1)Cc1ncccc1Cl [Compound I-28]	> 10 ×10⁻⁶ cm/s	> 10 ×10⁻⁶ cm/s	0.1 to 10	100 to 1000 nM	0.01 to 100 nM
NC(=O)CCN(Cc1nccs1)[C@H]1CCCc2cccnc21 [Compound I-50]	> 10 ×10⁻⁶ cm/s	> 10 ×10⁻⁶ cm/s	0.1 to 10	≥ 1000 nM	≥ 1000 nM
Clc1cccnc1CN(CCc1cnc[nH]1)Cc1nccc2ccccc12 [Compound I-37]	5 to 10 ×10⁻⁶ cm/s	> 10 ×10⁻⁶ cm/s	0.1 to 10	0.01 to 100 nM	0.01 to 100 nM
COCCCN(Cc1nc2ccccc2[nH]1)[C@H]1CCCc2cccnc21 [Compound I-18]	–	–	–	100 to 1000 nM	0.01 to 100 nM
CC(=O)NCCN(Cc1ncccc1C)[C@H]1CCCc2cccnc21 [Compound I-30]	–	–	–	100 to 1000 nM	0.01 to 100 nM
CC(=O)NCCCN(Cc1ncccc1C)[C@H]1CCCc2cccnc21 [Compound I-29]	–	–	–	≥ 1000 nM	0.01 to 100 nM
c1cnc2c(c1)CCC[C@@H]2N(CCC1CCCO1)Cc1nc2ccccc2[nH]1 (stereo partly shown) [Compound I-17]	–	–	–	≥ 1000 nM	0.01 to 100 nM
CC(c1ccccn1)N(CCc1ccccn1)Cc1ccccn1 (stereo not shown) [Compound I-1, 2-(Pyridin-2-yl)-N-(1-(pyridin-2-yl)ethyl)-N-(pyridin-2-ylmethyl)ethan-1-amine]	–	–	–	≥ 1000 nM	0.01 to 100 nM
COCCc1ccc(OCC(O)CNC(C)C)cc1 (stereo not shown) [Metoprolol, reference compound]	> 10 ×10⁻⁶ cm/s	> 10 ×10⁻⁶ cm/s	–	–	–
